Literature values, collected in PMC11220795 (Molecular Pharmaceutics, 2024).
Where two headings read alike, the source gives them in different places.

Conditions: decadic logarithm of molar solubility in MCTs, cited from earlier work
[1] = ref Alsenz, J. and Kuentz, M., 2019
[2] = ref Alskär, L.C., Porter, C.J. and Bergström, C.A., 2016
[3] = ref Wyttenbach, N., Niederquell, A., Ectors, P. and Kuentz, M., 2022

Molecule	log10 S [M] [1] [M]	other results
CCCCNC(=O)NS(=O)(=O)c1ccc(C)cc1 [tolbutamide]	-1.85	–
C#C[C@]1(O)CC[C@H]2[C@@H]3CCc4cc(O)ccc4[C@H]3CC[C@@]21C [ethinylestradiol]	–	log10 S [M] [2]: -0.83 M
CC(=O)Oc1ccc(C(c2ccc(OC(C)=O)cc2)c2ccccn2)cc1 [bisacodyl]	-2.22	–
COc1ccc2c(c1)c(CC(=O)O)c(C)n2C(=O)c1ccc(Cl)cc1 [indomethacin]	-2.01	–
Cc1cccc(Nc2ccccc2C(=O)O)c1C [mefenamic acid]	-1.97	–
CC(=O)N1CCN(c2ccc(OCC3COC(Cn4ccnc4)(c4ccc(Cl)cc4Cl)O3)cc2)CC1 (centres unmarked) [ketoconazole]	-2.90	–
CCCN(CCC)S(=O)(=O)c1ccc(C(=O)O)cc1 [probenecid]	-2.16	–
bezafibrate	–	log10 S [M] [2]: -3.22 M
CCN(CC)C(=S)SSC(=S)N(CC)CC [disulfiram]	–	log10 S [M] [2]: -0.73 M
CCOc1nc2cccc(C(=O)OC(C)OC(=O)OC3CCCCC3)c2n1Cc1ccc(-c2ccccc2-c2nnn[nH]2)cc1 (centres unmarked) [candesartan cilexetil]	–	log10 S [M] [2]: -2.93 M
CC(C)(C)NCC(O)COc1cccc2c1CC(O)C(O)C2 (centres unmarked) [nadolol]	-3.23	–
OCCN(CCO)c1nc(N2CCCCC2)c2nc(N(CCO)CCO)nc(N3CCCCC3)c2n1 [dipyridamole]	–	log10 S [M] [2]: -3.56 M
CCCCN(CCCC)CCC(O)c1cc2c(Cl)cc(Cl)cc2c2cc(C(F)(F)F)ccc12 (centres unmarked) [halofantrine]	–	log10 S [M] [2]: -0.70 M
O=c1[nH]c2ccccc2n1C1CCN(CCCC(c2ccc(F)cc2)c2ccc(F)cc2)CC1 [pimozide]	–	log10 S [M] [3]: -2.82 M
CCN(CC)CC(=O)Nc1c(C)cccc1C [lidocaine]	-0.71	–
Nc1ccc(S(=O)(=O)Nc2ccnn2-c2ccccc2)cc1 [sulfaphenazole]	-3.03	–
COc1ccc2c(c1)c(CC(=O)OCC(=O)O)c(C)n2C(=O)c1ccc(Cl)cc1 [acemetacin]	-2.33	–
CCc1nc(N)nc(N)c1-c1ccc(Cl)cc1 [pyrimethamine]	-2.65	–
CC(=O)OCC(=O)[C@@]1(O)CC[C@H]2[C@@H]3CCC4=CC(=O)CC[C@]4(C)[C@H]3[C@@H](O)C[C@@]21C [hydrocortisone acetate]	-3.54	–

Molecule	log10 S [M] [1] [M]	other results
NC(=O)N1c2ccccc2C=Cc2ccccc21 [carbamazepine]	–	log10 S [M] [3]: -2.09 M
NS(=O)(=O)c1cc(C(=O)O)c(NCc2ccco2)cc1Cl [furosemide]	-3.18	–
CC(=O)Nc1ccc(O)cc1 [paracetamol]	-2.50	–
Cc1ccc(-c2cc(C(F)(F)F)nn2-c2ccc(S(N)(=O)=O)cc2)cc1 [celecoxib]	–	log10 S [M] [3]: -1.66 M
O=C1C(CC[S+]([O-])c2ccccc2)C(=O)N(c2ccccc2)N1c1ccccc1 (centres unmarked) [sulfinpyrazone]	-2.33	–
Clc1ccccc1C(c1ccccc1)(c1ccccc1)n1ccnc1 [clotrimazole]	-1.45	–
CN1C(C(=O)Nc2ccccn2)=C(O)c2ccccc2S1(=O)=O [piroxicam]	-2.25	–
CCCSc1ccc2nc(NC(=O)OC)[nH]c2c1 [albendazole]	-2.91	–
O=C1NC(=O)C(c2ccccc2)(c2ccccc2)N1 [phenytoin]	-3.00	–
CC(=O)CC(c1ccccc1)c1c(O)c2ccccc2oc1=O (centres unmarked) [warfarin]	-2.14	–
COc1ccccc1OCCNCC(O)COc1cccc2[nH]c3ccccc3c12 (centres unmarked) [carvedilol]	–	log10 S [M] [3]: -2.46 M
Cc1ccccc1-c1cc(N2CCOCC2)ncc1N(C)C(=O)C(C)(C)c1cc(C(F)(F)F)cc(C(F)(F)F)c1 [befetupitant]	-1.08	–
C[C@@H]1C[C@H]2[C@@H]3CCC4=CC(=O)C=C[C@]4(C)[C@@]3(F)[C@@H](O)C[C@]2(C)[C@@]1(O)C(=O)CO [dexamethasone]	-3.21	–
COc1ccc2cc([C@H](C)C(=O)O)ccc2c1 [naproxen]	–	log10 S [M] [2]: -1.38 M
CCOC(=O)C1=C(C)NC(C)=C(C(=O)OC)C1c1cccc(Cl)c1Cl (centres unmarked) [felodipine]	–	log10 S [M] [2]: -1.16 M
CC(=O)[C@H]1CC[C@H]2[C@@H]3CCC4=CC(=O)CC[C@]4(C)[C@H]3CC[C@]12C [progesterone]	-1.05	–
O=C(Nc1ccc([N+](=O)[O-])cc1Cl)c1cc(Cl)ccc1O [niclosamide]	–	log10 S [M] [2]: -2.06 M
reserpine	-3.06	–
O=C(CCCN1CCC(O)(c2ccc(Cl)cc2)CC1)c1ccc(F)cc1 [haloperidol]	-2.38	–
